Columns and labels:
human fibroblasts (MRC5) = assay: In vitro toxicity on human fibroblasts (MRC5), total protein content; assay type: cell-based; conditions: concentration of 0.1 mM (10^-4 M), 1% ethanol
Method: Each of the imidazolopyrazine derivatives tested was applied to human fibroblasts (MRC5) in culture. The doses of the compounds ranged from 10^-8 to 10^-4 M. These compounds were applied 48 hours after the cells were inoculated into wells (volume=150 μl; 3000 cells per well).
After a further 24 hour period, the culture medium is renewed, the cells are incubated for 72 hours and their level of survival and of growth is evaluated by measuring the total protein contents in each well (Biorad).

[1] = test system: Cu-Zn superoxide dismutase; assay: Competition of imidazolopyrazine and superoxide dismutase for superoxide anion (xanthine oxidase/hypoxanthine), luminescence; assay type: biochemical; conditions: for change of slope of the relationship linking IO/I to the superoxide dismutase concentration: when the concentration of the luminescent compound is increased
From the text: This method is based on the capacity of imidazolopyrazines to react with the superoxide anion, emitting light.
In these experiments, a constant level of superoxide anion is generated by an enzymatic method, by reacting xanthine oxidase with hypoxanthine in the presence of oxygen.
The maximum light intensity, measured by a luminometer during the competition reaction, is linked to the ratio in [sic] imidazolopyrazine and superoxide dismutase concentrations, as well as to that of the respective rate constants.
Consequently, knowing the rate constant of the reaction of the competing antioxidant with the superoxide anion (K3), the rate constant of the reaction of the imidazolopyrazine with the superoxide anion (K2) may be calculated:
By carrying out this experiment at two imidazolopyrazine concentrations, it is possible to eliminate K1 [O2^2- ] corresponding to the spontaneous disproportionation reaction of O2^2-. The slopes A and B of the straight lines linking IO /I [sic] to the superoxide dismutase concentration are: [formula]
K2 =K3 /([IMPZ]1 -[IMPZ]2)/(1/A)-1/B)
When the imidazolopyrazine concentration is increased, the slope of the relationship linking IO /I [sic] to the superoxide dismutase concentration should decrease.

[2] = In vitro toxicity on other mammalian cell types (FIG. 11); assay type: cell-based; conditions: pig (EAP) endothelial cells, read-out: concentration at which a toxic effect can possibly be observed
Method: Similar in vitro toxicity tests were performed on other mammalian (porcine, human, etc.) cell types.
FIG. 11 depicts the percentage survival of different cell types (fibroblasts, human (ECV) or pig (EAP) endothelial cells) as a function of increasing doses of CLZ-9 (molar). A toxic effect of the products can possibly be observed on a certain cell type at high concentrations (10^-4 M in pigs).

Human fibroblasts = assay: Protection of human fibroblasts against oxidative stress inducer tert-butyl hydroperoxide (t-BHP); assay type: cell-based
Method: Human fibroblasts were subjected to an oxidative stress inducer (tert-butyl hydroperoxide (t-BHP)) for 6 to 12 hours in the absence and in the presence of increasing doses of coelenterazine and its derivatives.
In the same experimental series, the efficacy of vitamin E (α-tocopherol) (Troxol®), a major antioxidant of animal cells, was compared.

mice [3] = conditions: mouse, in vivo
In vivo toxicity in mice = conditions: mouse, in vivo, ip, 0.02 mg/kg
mice [4] = assay: In vivo toxicity in mice; conditions: 20 μg/kg, 5 intraperitoneal injections
[5] = Stability in aqueous medium (buffers pH 4, 7, 10; assayed by luminescence in DMSO); assay type: physicochemical; conditions: irrespective of the pH
Method: FIG. 7 depicts the stability of the derivative 10 in an aqueous medium. Three 10^-5 M solutions of CLZN-10 were prepared in citrate (pH 4), phosphate (pH 7) and glycine (pH 10) buffers. Aliquots of these solutions were sampled regularly and the CLZN-10 assayed by luminescence in DMSO.
In comparison with coelenterazine, derivatives comprising additional phenyl groups display better stability.

[6] = t-BHP-treated human fibroblasts

Structure (SMILES): O=c1c(Cc2ccccc2)nc2c(Cc3ccccc3)[nH]c(-c3ccc(O)cc3)cn1-2 [CLZN-11, 3,7-dihydro-2-benzyl-6-(p-hydroxyphenyl)-8-benzylimidazo[1,2-a]pyrazyn-3-one]
- toxicity for human fibroblasts (MRC5) (human fibroblasts (MRC5)): significant toxicity

Structure (SMILES): Cc1nc2c(Cc3ccccc3)[nH]c(-c3ccc(O)cc3)cn-2c1=O [CLZN-9, 3,7-dihydro-2-methyl-6-(p-hydroxyphenyl)-8-benzylimidazo[1,2-a]pyrazyn-3-one]
- increase of KSOD with imidazolopyrazine concentration (effect) [1]: observed
- MCC [2]: 100 µM
- EC100 (Human fibroblasts; Fibroblast, t-BHP-treated human fibroblasts, read-out: concentration at which protection is total): 1 µM
- minimal effective concentration (Human fibroblasts; Fibroblast, t-BHP-treated human fibroblasts, read-out: concentration from which the improvement of survival is significant): 0.02 µM
- survival of the t-BHP-treated cells (Human fibroblasts; t-BHP 10^-4 M, without serum (FIG. 8)): most advantageous results
- antioxidant activity compared with vitamin E (Human fibroblasts; [6]): greater than

Structure (SMILES): Oc1ccc(Cc2nc3c(Cc4ccccc4)nc(-c4ccc(O)cc4)cn3c2O)cc1 [coelenterazine, 3,7-dihydro-2-(p-hydroxybenzyl)-6-(p-hydroxyphenyl)-8-benzylimidazo[1,2-a]pyrazyn-3-one]
- rate constant KSOD ([1]; coelenterazine concentration 50 nM): 2×10^9
- rate constant KSOD ([1]; coelenterazine concentration 400 nM): 2.5×10^10
- increase in rate constant KSOD ([1]; coelenterazine concentration multiplied by 8 (from 50 to 400 nM)): 12.5 fold
- change of slope of the relationship linking IO/I to the superoxide dismutase concentration [1]: a rise in the slope
- Weight (in grams) after 0 day (mice [3]): 16.19 grams
- Weight (in grams) after 6 days (mice [3]): 22.82 grams
- Weight (in grams) after 30 days (mice [3]): 31.57 grams
- survival (mice [3]): 5/5
- growth retardation (mice [3]; ip): no growth retardation is observed
- survival (In vivo toxicity in mice): 100%
- toxicity for mice (mice [4]): not toxic
- stability in an aqueous medium [5]: only a few hours
- antioxidant activity compared with vitamin E (Human fibroblasts; [6]): equivalent to

Structure (SMILES): Nc1cccc2c(=O)[nH][nH]c(=O)c12 [luminol, reference compound]
- change of slope of the relationship linking IO/I to the superoxide dismutase concentration [1]: a regular decrease in the slope

Structure (SMILES): Cc1c(C)c2c(c(C)c1O)CC[C@@](C)(CCC[C@H](C)CCC[C@H](C)CCCC(C)C)O2 [vitamin E, α-tocopherol, reference compound]
- protection (Human fibroblasts; serum (10%) in the culture medium, highest concentrations): 60%

Structure (SMILES): O=c1c(-c2ccccc2)nc2c(Cc3ccccc3)[nH]c(-c3ccc(O)cc3)cn1-2 [CLZN-10, 3,7-dihydro-2-phenyl-6-(p-hydroxyphenyl)-8-benzylimidazo[1,2-a]pyrazyn-3-one]
- increase of KSOD with imidazolopyrazine concentration (effect) [1]: observed

— US6204266A, “Pharmaceutical, cosmetic and/or food composition having anti-oxidant properties” (Universite Catholique De Louvain Halles Universitaires, priority 1995, dated 2001)
